Several values for one entry are separate records, joined by “and”; a condition that tells them apart may be missing. Equal entries are not always repeated.
What was measured:
Type in all cases: physicochemical
TG/DSC thermal analysis = conditions: for Enthalpy / Onset Temperature / Signal Temperature: TG/DSC signal of Compound 1 mono-tosylate solid form; for onset of thermal decomposition: TG/DSC, 10° C./min
Protocol: (§1) Thermogravimetric Analysis/Differential Scanning Calorimetry (TGA/DSC): Approximately, 5-10 mg of material was added into a pre-tared open aluminum pan and loaded into a TA Instruments Discovery SDT 650 Auto—Simultaneous DSC and held at room temperature. The sample was then heated at a rate of 10° C./min from 30° C. to 350° C. during which time the change in sample weight was recorded along with the heat flow response (DSC). Nitrogen was used as the sample purge gas, at a flow rate of 200 cm^3/min.
as §1, with “Thermogravimetric/Differential Thermal Analysis (TG/DTA):” for “Thermogravimetric Analysis/Differential Scanning Calorimetry (TGA/DSC):”, “cm^3/min. […]” for “cm^3/min.”

[1] = Polymorph stability study (competitive slurrying)
Protocol: To prepare solutions saturated with Compound 1 mono-tosylate for competitive slurrying, 2×100 mg (0.20 mmol) amorphous Compound 1 mono-tosylate was weighed into 2×4 mL vials. To each vial, 500 μL of ethanol was added and the vials were manually shaken for a few seconds. Complete dissolution was noted. A further about 20 mg of amorphous Compound 1 mono-tosylate was added to each vial and the vials were agitated for about 3 hours: one vial at ambient temperature and one vial at 60° C. After about 3 hours, both were solutions. More amorphous Compound 1 mono-tosylate (about 30 mg) was added to each vial and they were shaken at their respective temperatures again for about another hour. Both appeared to be slurries. To remove the excess solids, the slurries were filtered centrifugally and the mother liquors each placed into separate, clean vials. […] After 48 hours, the solids were recovered via centrifugal filtration and analyzed by XRPD. The XRPD plate containing the solids was then dried at 40° C. for 2 hours and re-analyzed.
To prepare a solution saturated with amorphous Compound 1 mono-tosylate for competitive slurrying, 50 mg (0.10 mmol) of amorphous Compound 1 mono-tosylate was weighed into a 4 mL vial. […] After 72 hours, the solids were recovered via centrifugal filtration and analyzed by XRPD.

[2] = Drying of solids and re-analysis by XRPD (form conversion)
Protocol: Any new solids which produced patterns by XRPD were dried at 40° C. for 24 hours before being analyzed again. Potential New Patterns were also analyzed by ^1H NMR, PLM and TG/DSC.
To prepare crystalline forms 1 and 4 of Compound 1 mono-tosylate, 2×500 mg (1.01 mmol) of amorphous Compound 1 mono-tosylate was placed into 20 ml vials. To each of these vials, 12 ml of solvent (dichloromethane for crystalline form 1 and tetrahydrofuran for crystalline form 4) was added to prepare slurries. Volumes/mass used were a direct scale-up from the primary screen discussed above. The slurries were thermally cycled (with agitation) between ambient temperature and 40° C. (4-hour cycles at each condition) for 72 hours. Post-thermal cycling, an aliquot of solid was removed from each vial using a micro-spatula and analyzed by XRPD to confirm that the desired form was produced. The remainder of each slurry was then filtered by Buchner filtration. The solids were dried on the filter bed for no longer than 1 minute before being transferred to pre-weighed 20 ml vials. The solids were then dried under vacuum at ambient temperature for 2 hours. Another aliquot of each solid was analyzed by XRPD post-drying. […] As such, the solids were transferred to an oven at 40° C. (ambient pressure) and subsequently dried for approximately 18 hours. […] Crystalline form 1 yield: 86.1%. Crystalline form 4 yield: 84.2%.

[3] = 7 day stability study of solid forms (XRPD, HPLC); conditions: stored 7 days; 40° C./75% RH (open vial) according to b80 and FIG. 14 legend
Protocol: Crystalline form 5 of Compound 1 mono-tosylate was obtained during a 7 day stability study for crystalline forms 1 and 4. In the study, 3×20 mg (0.04 mmol) of crystalline forms 1 and 4, and amorphous Compound 1 mono-tosylate, were individually weighted into 1.5 mL vials and stored under the following conditions for 7 days: • (i) 40° C./75% relative humidity (RH) (open vial); • (ii) 80° C./ambient humidity (sealed vial); and • (iii) Ambient conditions (open vial).
After 7 days, any remaining solids recovered were analyzed by XRPD to assess form purity and HPLC changes in chemical purity. […] More crystalline form 5 was prepared by storing 100 mg of crystalline form 4 […] for approximately 4 days.

[4] = listed as Amorphous, mono-tosylate salt
[5] = listed as Form 6, mono-tosylate salt

Cc1ccc(S(=O)(=O)O)cc1.NC[C@@H](C(=O)Nc1ccc2cnccc2c1)c1ccc(CO)cc1 [amorphous Compound 1 mono-tosylate, alpha-(aminomethyl)-4-(hydroxymethyl)-N-6-isoquinolinyl-(S)-benzeneacetamide mono-tosylate salt]
Enthalpy (TG/DSC thermal analysis; [4]): 94.1 J/g
Onset Temperature (TG/DSC thermal analysis; [4]): 184.0 °C
Signal Temperature (TG/DSC thermal analysis; [4]): 202.1 °C
onset of thermal decomposition (TG/DSC thermal analysis; listed as Amorphous Compound 1 Mono-Tosylate, mono-tosylate salt): event associated with decomposition observed (onset 184° C.)
onset of thermal decomposition (TG/DSC thermal analysis; listed as amorphous Compound 1, mono-tosylate salt): 184 °C
onset of thermal decomposition (TG/DSC thermal analysis; listed as amorphous material, mono-tosylate salt): about 184 °C

Cc1ccc(S(=O)(=O)O)cc1.NC[C@@H](C(=O)Nc1ccc2cnccc2c1)c1ccc(CO)cc1 [crystalline form 1, alpha-(aminomethyl)-4-(hydroxymethyl)-N-6-isoquinolinyl-(S)-benzeneacetamide mono-tosylate salt]
form recovered (XRPD) after competitive slurrying ([1]; forms 1, 4 and 5 together in saturated ethanol, 48 hours, ambient temperature and 60° C.): New crystalline form 6 was observed
onset of thermal decomposition (TG/DSC thermal analysis; mono-tosylate salt): 189 °C

Cc1ccc(S(=O)(=O)O)cc1.NC[C@@H](C(=O)Nc1ccc2cnccc2c1)c1ccc(CO)cc1 [crystalline form 3, alpha-(aminomethyl)-4-(hydroxymethyl)-N-6-isoquinolinyl-(S)-benzeneacetamide mono-tosylate salt]
form conversion on drying ([2]; drying at 40° C. for approximately 24 hours): convert to crystalline form 4
form conversion on drying ([2]; oven at 40° C. (ambient pressure), approximately 18 hours): converted to crystalline form 4
form after drying ([2]; under vacuum at ambient temperature for 2 hours): crystalline form 3 remained also

Cc1ccc(S(=O)(=O)O)cc1.NC[C@@H](C(=O)Nc1ccc2cnccc2c1)c1ccc(CO)cc1 [crystalline form 4, alpha-(aminomethyl)-4-(hydroxymethyl)-N-6-isoquinolinyl-(S)-benzeneacetamide mono-tosylate salt]
crystalline form found by XRPD after 7 day stability study [3]: converted into a new crystalline form: crystalline form 5
Enthalpy (TG/DSC thermal analysis; listed as Form 4, mono-tosylate salt): 148.3 J/g and 126.6 J/g

Cc1ccc(S(=O)(=O)O)cc1.NC[C@@H](C(=O)Nc1ccc2cnccc2c1)c1ccc(CO)cc1 [crystalline form 6, alpha-(aminomethyl)-4-(hydroxymethyl)-N-6-isoquinolinyl-(S)-benzeneacetamide mono-tosylate salt]
form after drying of the recovered solids ([1]; dried at 40° C. for 2 hours): retained on drying
Enthalpy (TG/DSC thermal analysis; [5]): 165.0 J/g
Onset Temperature (TG/DSC thermal analysis; [5]): 196.2 °C
Signal Temperature (TG/DSC thermal analysis; [5]): 201.5 °C
stability of the form (conclusion from thermal and NMR analyses) (TG/DSC thermal analysis; no loss in mass on heating prior to melting/decomposition): stable anhydrous form
